Results on five compounds are retold here after US11535613B2 (GUANGDONG RAYNOVENT BIOTECH CO., LTD., priority 2018, dated 2022).

Each structure is given as a SMILES string.

This data set in a line: Solid stability test of crystal forms (high temperature, high humidity, light radiation, accelerated conditions; appearance, content, impurities, crystal form by XRPD). It counts as physicochemical. Particulars: for change of crystal form (XRPD detection): after the solid stability test conditions; for XPRD: crystal form found. From the text:
High Performance Liquid Chromatograph (HPLC) The analytic method is as follows: [table] [table] […] The sample was placed under high temperature, high humidity and acceleration conditions. The bottle was sealed with an aluminum foil, and some small holes were pierced on the aluminum foil to ensure that the sample could fully contact with the ambient air. The sample placed under light radiation was placed upright at room temperature and open to the air. The sample was exposed to a light source, and radiated with sufficient energy prior to taking samples for detection. Samples were taken at various time points for analysis, and the detection results were compared with the initial detection results obtained at Day 0. The investigation items include appearance, content and impurities. […] The sample was placed under high temperature, high humidity and acceleration conditions. The bottle was sealed with an aluminum foil, and some small holes were pierced on the aluminum foil to ensure that the sample could fully contact with the ambient air. The sample placed under light radiation was placed upright at room temperature and open to the air. The sample was exposed to a light source, and radiated with sufficient energy prior to taking samples for detection. Samples were taken at various time points for analysis, and the detection results were compared with the initial detection results obtained at Day 0. The investigation items include appearance, content and impurities. […] Samples were taken at various time points, and the test results were compared with the initial test results obtained at Day 0. […] The investigation items include appearance, impurities, and crystal forms.

The mark [1] stands for this setting: Acceleration test (40° C./relative humidity 75%, open), Day 5.
[2] abbreviates: Acceleration test (40° C./relative humidity 75%, open), Day 10.
The mark [3] stands for this setting: High humidity (room temperature/relative humidity 92.5%, open), Day 5.
Where [4] appears, read: High humidity (room temperature/relative humidity 92.5%, open), Day 10.
Setting [5] is: High temperature (60° C., open), Day 5.
Setting [6] is: High temperature (60° C., open), Day 10.
[7] abbreviates: Light radiation (total illumination 1.2 × 10^6 Lux · hr), Day 5.
Setting [8] is: Light radiation (total illumination 1.2 × 10^6 Lux · hr), Day 10.
Where [9] appears, read: high temperature, high humidity and accelerated experiments.
Setting [10] is: Acceleration test (40° C./relative humidity 75%, open), Day 12.
The mark [11] stands for this setting: High humidity (room temperature/relative humidity 92.5%, open), Day 12.
Where [12] appears, read: High temperature (60° C., open), Day 12.
[13] abbreviates: Light radiation (total illumination 1.2 × 10^6 Lux · hr), Day 12.
[14] abbreviates: Acceleration test (40° C./relative humidity 75%, open), Day 30.
[15] abbreviates: High humidity (room temperature/relative humidity 92.5%, open), Day 30.
Setting [16] is: High temperature (60° C., open), Day 30.

Consider `O=C(O)[C@H]1C2CCC(CC2)[C@@H]1Nc1nc(-c2n[nH]c3ncc(F)cc23)nc(C2CC2)c1F` (single isomer, unassigned) [crystal form A], for which the “change of crystal form (XRPD detection)” value is “does not change”. For the same compound, the Appearance result under setting [1] is “Off-white solid”. Moreover, under setting [2], the Appearance result is “Off-white solid”, the “Content (%)” value was 98.36%, the “Total Impurities (%)” value was 1.64% and the XPRD result is on record as “Crystal form A”. For the same compound, for the setting “Day 0 (initial)”, the Appearance entry was “Off-white solid”, the “Content (%)” value stood at 98.51%, the “Total Impurities (%)” value turned out to be 1.49% and the XPRD result was “Crystal form A”. Further, the Appearance entry under setting [3] is recorded as “Off-white solid”. Further, under setting [4], the Appearance result is “Off-white solid”, the “Content (%)” value is on record as 98.25%, the “Total Impurities (%)” value came out at 1.75% and the XPRD result is “Crystal form A”. The Appearance entry under setting [5] is “Off-white solid”. For the same compound, under setting [6], the Appearance entry is on record as “Off-white solid”, the “Content (%)” value amounted to 98.25%, the “Total Impurities (%)” value came out at 1.75% and the XPRD entry is “Crystal form A”. Besides, under setting [7], the Appearance entry is “Off-white solid”. For the same compound, under setting [8], the Appearance entry is on record as “Off-white solid”, the “Content (%)” value is listed as 96.89%, the “Total Impurities (%)” value was found to be 3.11% and the XPRD entry is listed as “Crystal form A”. For the same compound, under setting [9], the “change in total impurity content” value is recorded as “relatively small change”.

As for `O=C(O)[C@H]1C2CCC(CC2)[C@@H]1Nc1nc(-c2n[nH]c3ncc(F)cc23)nc(C2CC2)c1F` (single isomer, unassigned) [crystal form B], the “change of crystal form (XRPD detection)” value is on record as “does not change”. For the same compound, where the note is “Day 0 (initial)”, the Appearance result is on record as “Off-white”, the “Content (%)” value was 98.89%, the “Total Impurities (%)” value stood at 1.11% and the XPRD entry is recorded as “Crystal form B”. Under setting [3], the Appearance entry is “Off-white”, the “Content (%)” value is on record as 98.92% and the “Total Impurities (%)” value is listed as 1.08%. Moreover, under setting [4], the Appearance entry is on record as “Off-white”, the “Content (%)” value was 98.90%, the “Total Impurities (%)” value was found to be 1.10% and the XPRD entry is given as “Crystal form B”. Under setting [5], the Appearance result was “Off-white”, the “Content (%)” value was 98.91% and the “Total Impurities (%)” value is on record as 1.09%. Under setting [6], the Appearance entry is “Off-white”, the “Content (%)” value is recorded as 98.89%, the “Total Impurities (%)” value is recorded as 1.11% and the XPRD entry is “Crystal form B”. Moreover, the Appearance entry under setting [7] is “Off-white”. Under setting [8], the Appearance result was “Off-white”, the “Content (%)” value was determined as 98.03%, the “Total Impurities (%)” value came out at 1.97% and the XPRD entry is given as “Crystal form B”. In addition, the “change in total impurity” value (accelerated experiments) was “relatively small change”. Further, for the setting “high temperature, high humidity”, the “change in total impurity content” value is “almost no change”.

Regarding `O=C(O)[C@H]1C2CCC(CC2)[C@@H]1Nc1nc(-c2n[nH]c3ncc(F)cc23)nc(C2CC2)c1F` [crystal form D], the “change of crystal form (XRPD detection)” value is listed as “does not change”. Moreover, the Appearance result under setting [1] was “Off-white solid”. In addition, under setting [10], the Appearance entry is on record as “Off-white solid”, the “Total Impurities (%)” value turned out to be 3.5% and the XPRD entry is given as “Crystal form D”. Also, under “Day 0 (initial)”, the Appearance entry is reported as “Off-white solid”, the “Total Impurities (%)” value came to 3.3% and the XPRD result is “Crystal form D”. Moreover, the Appearance entry under setting [3] is “Off-white solid”. Moreover, under setting [11], the Appearance result is “Off-white solid”, the “Total Impurities (%)” value came to 3.4% and the XPRD result is recorded as “Crystal form D”. The Appearance result under setting [5] is listed as “Off-white solid”. Further, under setting [12], the Appearance entry is reported as “Off-white solid”, the “Total Impurities (%)” value is 3.3% and the XPRD entry is on record as “Crystal form D”. Further, under setting [7], the Appearance entry is given as “Off-white solid”. Moreover, under setting [13], the Appearance entry is given as “Off-white solid”, the “Total Impurities (%)” value came to 3.4% and the XPRD entry was “Crystal form D”. The “change in total impurity content” value (high temperature, high humidity, light radiation and accelerated experiments) is “almost no change”.

Take `O=C(O)[C@H]1C2CCC(CC2)[C@@H]1Nc1nc(-c2n[nH]c3ncc(F)cc23)nc(C2CC2)c1F` [crystal form F]: the “change of crystal form (XRPD detection)” value is listed as “does not change”. The Appearance entry under setting [1] was “Off-white solid”. Under setting [10], the Appearance result was “Off-white solid”, the “Total Impurities (%)” value amounted to 1.9% and the XPRD entry was “Crystal form F”. Besides, under “Day 0 (initial)”, the Appearance result is “Off-white solid”, the “Total Impurities (%)” value was found to be 1.7% and the XPRD entry is “Crystal form F”. The Appearance result under setting [3] is listed as “Off-white solid”. Besides, under setting [11], the Appearance entry was “Off-white solid”, the “Total Impurities (%)” value came out at 1.9% and the XPRD result is given as “Crystal form F”. Further, under setting [5], the Appearance result is reported as “Off-white solid”. Also, under setting [12], the Appearance result is listed as “Off-white solid”, the “Total Impurities (%)” value worked out at 1.9% and the XPRD entry was “Crystal form F”. Also, under setting [7], the Appearance entry is “Off-white solid”. Under setting [13], the Appearance entry was “Off-white solid”, the “Total Impurities (%)” value is given as 1.8% and the XPRD entry was “Crystal form F”. Further, under setting [9], the “change in total impurity content” value is recorded as “almost no change”.

`O=C(O)[C@H]1C2CCC(CC2)[C@@H]1Nc1nc(-c2n[nH]c3ncc(F)cc23)nc(C2CC2)c1F` [crystal form G]: the “change of crystal form (XRPD detection)” value is recorded as “does not change”. Besides, the Appearance entry under setting [1] is listed as “Off-white solid”. Moreover, under setting [14], the Appearance result is reported as “Off-white solid”, the “Total Impurities (%)” value came to 0.35% and the XPRD result is listed as “Crystal form G”. In addition, under “Day 0 (initial)”, the Appearance entry is on record as “Off-white solid”, the “Total Impurities (%)” value worked out at 0.35% and the XPRD result is listed as “Crystal form G”. In addition, the Appearance result under setting [3] was “Off-white solid”. For the same compound, under setting [15], the Appearance result is reported as “Off-white solid”, the “Total Impurities (%)” value turned out to be 0.33% and the XPRD entry is recorded as “Crystal form G”. For the same compound, the Appearance entry under setting [5] was “Off-white solid”. For the same compound, under setting [16], the Appearance entry was “Off-white solid”, the “Total Impurities (%)” value is listed as 0.42% and the XPRD result is on record as “Crystal form G”. Moreover, the Appearance result under setting [7] was “Off-white solid”. Under setting [13], the Appearance result was “Yellowish solid”, the “Total Impurities (%)” value amounted to 0.54% and the XPRD entry is on record as “Crystal form G”. Also, the “change in total impurity content” value (high humidity and accelerated experiments) is “almost no change”. Besides, the “change in total impurity content” value (high temperature) is given as “relatively small change”.
